Legend:
Set-up in all cases: Invitrogen kinase panel, per cent inhibition of kinase activity
MARK1 = MARK1 (Homo sapiens, UniProt Q9P0L2); conditions: 10 µM, inhibitor
Description: (§1) To discover a potent and selective BDK inhibitor, a subset of the Pfizer compound collection was screened. […] Off target activity was assessed in both CEREP and kinase panels (Supplementary Tables 2, 3).

SPHK2 = SPHK2 (Homo sapiens, UniProt Q9NRA0); conditions: inhibitor
Description: as §1

MST4 = biological target: T1, MST4 (Homo sapiens, UniProt Q9P289); conditions: 10 µM, inhibitor
T1 construct: gene STK26
T1 sequence (Q9P289 whole entry): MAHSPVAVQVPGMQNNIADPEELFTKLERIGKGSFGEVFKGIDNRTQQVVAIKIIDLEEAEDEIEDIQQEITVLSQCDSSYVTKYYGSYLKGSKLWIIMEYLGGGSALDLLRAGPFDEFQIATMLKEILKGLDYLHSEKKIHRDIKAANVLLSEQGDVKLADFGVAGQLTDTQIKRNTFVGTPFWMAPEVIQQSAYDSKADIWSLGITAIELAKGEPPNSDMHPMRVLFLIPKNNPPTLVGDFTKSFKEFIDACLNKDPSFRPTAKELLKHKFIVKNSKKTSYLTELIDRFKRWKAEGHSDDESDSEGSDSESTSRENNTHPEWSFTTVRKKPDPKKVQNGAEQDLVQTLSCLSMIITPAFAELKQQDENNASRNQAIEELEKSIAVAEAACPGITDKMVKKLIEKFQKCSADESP
Description: as §1

TAOK2 = biological target: T2, TAOK2 (Homo sapiens, UniProt Q9UL54); conditions: 10 µM, inhibitor
T2 sequence (Q9UL54 1-1235): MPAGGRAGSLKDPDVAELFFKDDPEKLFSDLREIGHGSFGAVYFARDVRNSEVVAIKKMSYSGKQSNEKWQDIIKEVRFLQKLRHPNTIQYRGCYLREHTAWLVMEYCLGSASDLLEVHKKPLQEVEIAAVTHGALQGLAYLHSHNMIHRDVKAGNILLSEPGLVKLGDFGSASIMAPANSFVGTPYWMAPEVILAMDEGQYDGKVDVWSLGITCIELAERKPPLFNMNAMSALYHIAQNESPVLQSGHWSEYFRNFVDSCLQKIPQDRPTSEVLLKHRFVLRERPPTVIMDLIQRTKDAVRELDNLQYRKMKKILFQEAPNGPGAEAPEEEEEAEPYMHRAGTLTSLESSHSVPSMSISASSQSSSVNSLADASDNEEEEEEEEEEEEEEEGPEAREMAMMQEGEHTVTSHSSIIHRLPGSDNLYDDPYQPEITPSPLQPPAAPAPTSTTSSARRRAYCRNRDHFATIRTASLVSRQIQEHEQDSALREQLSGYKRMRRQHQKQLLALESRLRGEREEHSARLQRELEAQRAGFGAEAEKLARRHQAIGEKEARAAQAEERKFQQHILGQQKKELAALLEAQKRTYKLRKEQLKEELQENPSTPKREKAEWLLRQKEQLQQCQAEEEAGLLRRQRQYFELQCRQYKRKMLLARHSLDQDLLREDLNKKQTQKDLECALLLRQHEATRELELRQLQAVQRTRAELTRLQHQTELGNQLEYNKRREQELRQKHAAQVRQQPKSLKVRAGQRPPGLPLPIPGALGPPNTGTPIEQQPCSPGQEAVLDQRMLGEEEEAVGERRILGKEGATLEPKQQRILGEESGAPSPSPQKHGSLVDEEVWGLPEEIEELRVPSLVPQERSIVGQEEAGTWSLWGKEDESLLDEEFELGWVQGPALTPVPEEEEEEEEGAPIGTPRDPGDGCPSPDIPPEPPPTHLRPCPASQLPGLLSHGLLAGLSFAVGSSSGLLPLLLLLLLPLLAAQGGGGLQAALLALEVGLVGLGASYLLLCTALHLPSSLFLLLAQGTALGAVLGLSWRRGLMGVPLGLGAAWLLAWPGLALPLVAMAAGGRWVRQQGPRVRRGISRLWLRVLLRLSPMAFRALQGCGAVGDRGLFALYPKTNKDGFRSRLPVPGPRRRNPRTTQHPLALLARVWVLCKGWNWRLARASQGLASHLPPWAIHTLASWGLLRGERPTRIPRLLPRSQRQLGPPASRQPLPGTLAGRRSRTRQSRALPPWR
Description: as §1

STK3 = biological target: T3, STK3 (Homo sapiens, UniProt Q13188); conditions: 10 µM, inhibitor
T3 sequence (Q13188 1-491): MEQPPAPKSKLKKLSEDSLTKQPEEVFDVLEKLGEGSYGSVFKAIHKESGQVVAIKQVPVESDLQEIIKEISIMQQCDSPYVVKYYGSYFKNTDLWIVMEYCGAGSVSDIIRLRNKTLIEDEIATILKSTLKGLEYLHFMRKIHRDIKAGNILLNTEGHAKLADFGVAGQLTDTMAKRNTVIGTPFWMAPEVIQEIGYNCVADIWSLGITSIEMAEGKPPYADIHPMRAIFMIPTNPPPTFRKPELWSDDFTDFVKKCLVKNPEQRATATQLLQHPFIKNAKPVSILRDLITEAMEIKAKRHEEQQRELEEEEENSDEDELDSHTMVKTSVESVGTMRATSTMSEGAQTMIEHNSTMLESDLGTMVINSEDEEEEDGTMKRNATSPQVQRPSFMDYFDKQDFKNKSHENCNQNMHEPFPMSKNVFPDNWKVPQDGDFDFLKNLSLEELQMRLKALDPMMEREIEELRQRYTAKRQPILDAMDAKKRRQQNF
Description: as §1

SPHK1 = SPHK1 (Homo sapiens, UniProt Q9NYA1); conditions: 10 µM, inhibitor
Chain of SPHK1 (Q9NYA1 whole entry): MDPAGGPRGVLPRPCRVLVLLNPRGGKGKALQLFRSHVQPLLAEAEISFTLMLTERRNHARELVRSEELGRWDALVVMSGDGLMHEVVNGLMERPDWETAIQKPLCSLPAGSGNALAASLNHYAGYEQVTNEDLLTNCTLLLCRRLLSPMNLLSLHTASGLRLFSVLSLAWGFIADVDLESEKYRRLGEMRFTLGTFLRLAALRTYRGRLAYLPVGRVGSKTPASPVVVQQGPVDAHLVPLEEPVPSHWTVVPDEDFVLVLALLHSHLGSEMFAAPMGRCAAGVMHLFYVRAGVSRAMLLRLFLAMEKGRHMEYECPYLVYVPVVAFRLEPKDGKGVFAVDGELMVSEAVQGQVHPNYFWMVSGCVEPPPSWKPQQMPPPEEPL
Description: as §1

CSNK1A1 = CSNK1A1 (Homo sapiens, UniProt P48729); conditions: 10 µM, inhibitor
Chain of CSNK1A1 (P48729 whole entry): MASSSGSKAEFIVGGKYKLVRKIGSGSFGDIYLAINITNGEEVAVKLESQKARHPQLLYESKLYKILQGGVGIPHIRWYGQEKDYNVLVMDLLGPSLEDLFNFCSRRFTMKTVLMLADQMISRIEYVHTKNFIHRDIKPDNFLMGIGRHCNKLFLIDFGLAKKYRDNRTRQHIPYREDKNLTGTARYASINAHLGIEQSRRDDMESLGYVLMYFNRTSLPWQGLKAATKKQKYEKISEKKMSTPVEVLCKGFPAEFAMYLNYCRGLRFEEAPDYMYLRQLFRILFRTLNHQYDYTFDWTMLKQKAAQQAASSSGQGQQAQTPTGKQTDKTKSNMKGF
Description: as §1

PRKCB2 = biological target: T4, PRKCB2 (Homo sapiens, UniProt P05771); conditions: 10 µM, inhibitor
T4 construct: gene PRKCB; isoform beta2
T4 sequence (P05771 whole entry, canonical isoform): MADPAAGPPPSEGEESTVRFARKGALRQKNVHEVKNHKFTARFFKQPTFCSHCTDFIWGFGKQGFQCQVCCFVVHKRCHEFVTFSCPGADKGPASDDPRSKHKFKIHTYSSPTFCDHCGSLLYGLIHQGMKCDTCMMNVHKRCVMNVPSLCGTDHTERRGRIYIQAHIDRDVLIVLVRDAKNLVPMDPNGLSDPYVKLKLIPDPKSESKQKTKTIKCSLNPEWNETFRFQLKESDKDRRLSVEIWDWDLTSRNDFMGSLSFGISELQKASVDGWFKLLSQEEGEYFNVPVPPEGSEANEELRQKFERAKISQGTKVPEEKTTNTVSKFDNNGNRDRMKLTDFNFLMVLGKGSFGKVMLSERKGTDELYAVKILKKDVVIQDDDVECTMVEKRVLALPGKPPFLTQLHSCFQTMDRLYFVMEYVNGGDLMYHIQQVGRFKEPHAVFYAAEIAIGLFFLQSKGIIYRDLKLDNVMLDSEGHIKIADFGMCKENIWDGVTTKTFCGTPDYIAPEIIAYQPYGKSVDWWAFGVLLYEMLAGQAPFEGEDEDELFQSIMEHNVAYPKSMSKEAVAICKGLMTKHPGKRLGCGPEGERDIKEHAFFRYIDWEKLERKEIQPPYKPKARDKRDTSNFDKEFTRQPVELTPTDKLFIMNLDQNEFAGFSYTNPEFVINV
Description: as §1

[1] = biological target: T5, Eukaryotic elongation factor-2 kinase (Homo sapiens, UniProt O00418); conditions: 10 µM, inhibitor
T5 construct: gene EEF2K
T5 sequence (O00418 whole entry): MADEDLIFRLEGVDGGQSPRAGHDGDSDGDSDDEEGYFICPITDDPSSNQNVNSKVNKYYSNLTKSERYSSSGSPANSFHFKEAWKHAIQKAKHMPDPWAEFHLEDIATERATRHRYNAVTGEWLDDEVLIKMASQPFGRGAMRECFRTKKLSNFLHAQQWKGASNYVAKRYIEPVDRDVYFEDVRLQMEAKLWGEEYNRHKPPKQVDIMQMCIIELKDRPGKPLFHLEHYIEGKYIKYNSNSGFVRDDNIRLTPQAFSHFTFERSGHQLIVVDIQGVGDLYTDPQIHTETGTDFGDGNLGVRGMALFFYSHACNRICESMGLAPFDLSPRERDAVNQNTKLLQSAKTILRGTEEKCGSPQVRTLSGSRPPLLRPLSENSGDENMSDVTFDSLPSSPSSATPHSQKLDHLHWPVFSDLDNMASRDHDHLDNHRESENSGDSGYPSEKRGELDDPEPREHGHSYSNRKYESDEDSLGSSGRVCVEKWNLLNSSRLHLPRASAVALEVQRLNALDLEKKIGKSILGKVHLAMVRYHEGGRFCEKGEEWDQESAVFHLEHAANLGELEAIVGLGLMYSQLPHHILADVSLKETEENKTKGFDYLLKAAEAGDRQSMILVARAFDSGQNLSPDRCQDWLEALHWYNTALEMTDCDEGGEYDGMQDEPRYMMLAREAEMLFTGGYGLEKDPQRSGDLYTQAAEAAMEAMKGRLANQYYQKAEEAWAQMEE
Description: as §1

JNK1 = biological target: T6, JNK1 (Homo sapiens, UniProt P45983); conditions: 10 µM, inhibitor
T6 construct: gene MAPK8
T6 sequence (P45983 whole entry): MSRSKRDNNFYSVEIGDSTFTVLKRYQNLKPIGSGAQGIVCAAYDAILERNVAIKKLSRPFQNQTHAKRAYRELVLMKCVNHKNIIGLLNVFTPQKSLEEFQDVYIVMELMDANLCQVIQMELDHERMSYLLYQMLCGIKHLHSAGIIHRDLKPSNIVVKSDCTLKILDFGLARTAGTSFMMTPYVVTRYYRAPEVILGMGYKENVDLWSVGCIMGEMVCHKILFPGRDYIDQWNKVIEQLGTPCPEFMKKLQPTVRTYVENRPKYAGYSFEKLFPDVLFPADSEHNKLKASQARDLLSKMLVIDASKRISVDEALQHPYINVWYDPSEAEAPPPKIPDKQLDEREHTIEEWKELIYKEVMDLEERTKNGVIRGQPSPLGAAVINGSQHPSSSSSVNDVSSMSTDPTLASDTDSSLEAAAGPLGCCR
Description: as §1

NEK6 = NEK6 (Homo sapiens, UniProt Q9HC98); conditions: 10 µM, inhibitor
Chain of NEK6 (Q9HC98 whole entry): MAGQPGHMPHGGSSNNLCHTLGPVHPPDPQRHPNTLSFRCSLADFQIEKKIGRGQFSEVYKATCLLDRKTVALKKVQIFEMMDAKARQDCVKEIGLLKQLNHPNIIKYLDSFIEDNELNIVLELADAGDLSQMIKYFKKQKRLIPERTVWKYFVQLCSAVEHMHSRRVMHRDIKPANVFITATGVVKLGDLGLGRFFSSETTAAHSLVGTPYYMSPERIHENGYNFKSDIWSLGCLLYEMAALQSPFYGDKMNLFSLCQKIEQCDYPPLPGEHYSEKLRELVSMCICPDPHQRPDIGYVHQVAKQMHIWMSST
Description: as §1

MSK1 = biological target: T7, MSK1 (Homo sapiens, UniProt O75582); conditions: 10 µM, inhibitor
T7 construct: gene RPS6KA5
Description: as §1

Chain of MARK1 (Q9P0L2 whole entry): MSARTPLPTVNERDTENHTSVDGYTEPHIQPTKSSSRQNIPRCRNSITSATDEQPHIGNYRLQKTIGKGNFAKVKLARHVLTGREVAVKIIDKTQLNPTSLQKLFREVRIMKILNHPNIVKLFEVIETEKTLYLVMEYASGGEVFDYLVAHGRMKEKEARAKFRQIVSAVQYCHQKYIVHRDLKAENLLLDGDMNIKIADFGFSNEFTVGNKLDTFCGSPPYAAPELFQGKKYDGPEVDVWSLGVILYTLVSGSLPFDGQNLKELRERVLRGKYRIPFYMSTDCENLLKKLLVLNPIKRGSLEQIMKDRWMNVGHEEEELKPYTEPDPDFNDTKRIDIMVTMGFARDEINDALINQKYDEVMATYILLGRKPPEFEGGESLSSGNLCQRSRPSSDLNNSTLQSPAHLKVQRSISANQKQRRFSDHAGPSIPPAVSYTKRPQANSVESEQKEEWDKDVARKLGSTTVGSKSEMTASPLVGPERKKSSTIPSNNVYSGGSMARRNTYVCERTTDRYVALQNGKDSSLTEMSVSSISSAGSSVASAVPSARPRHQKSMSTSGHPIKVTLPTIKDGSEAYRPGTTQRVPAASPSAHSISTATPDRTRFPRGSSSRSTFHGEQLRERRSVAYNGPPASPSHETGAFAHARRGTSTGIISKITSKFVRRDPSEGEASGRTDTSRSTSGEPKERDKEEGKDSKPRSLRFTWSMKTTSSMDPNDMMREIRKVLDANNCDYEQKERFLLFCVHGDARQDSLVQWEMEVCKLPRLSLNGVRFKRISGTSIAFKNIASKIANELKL
Chain of SPHK2 (Q9NRA0 whole entry): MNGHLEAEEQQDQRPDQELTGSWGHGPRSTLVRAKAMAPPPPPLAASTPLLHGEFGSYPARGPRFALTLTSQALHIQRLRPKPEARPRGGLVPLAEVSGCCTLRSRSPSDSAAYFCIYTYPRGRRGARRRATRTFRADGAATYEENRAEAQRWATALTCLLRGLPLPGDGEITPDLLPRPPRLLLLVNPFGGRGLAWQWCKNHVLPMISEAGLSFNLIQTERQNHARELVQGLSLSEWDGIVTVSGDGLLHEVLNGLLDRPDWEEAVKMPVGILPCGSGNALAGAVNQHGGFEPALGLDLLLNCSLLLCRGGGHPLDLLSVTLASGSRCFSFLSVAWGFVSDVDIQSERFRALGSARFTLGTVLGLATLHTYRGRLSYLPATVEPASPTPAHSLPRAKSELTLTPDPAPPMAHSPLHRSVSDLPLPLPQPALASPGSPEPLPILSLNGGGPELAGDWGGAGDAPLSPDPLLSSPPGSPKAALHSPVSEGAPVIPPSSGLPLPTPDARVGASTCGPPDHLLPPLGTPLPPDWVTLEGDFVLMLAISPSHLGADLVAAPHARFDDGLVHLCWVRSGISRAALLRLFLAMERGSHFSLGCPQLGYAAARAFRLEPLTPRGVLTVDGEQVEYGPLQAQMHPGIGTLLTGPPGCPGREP

O=C(O)c1sc2cc(F)sc2c1Cl [PF-07208254, 3-chloro-5-fluorothieno[3,2-b]thiophene-2-carboxylic acid]
ATP = 1 mM % Inhibition PF-07208254 (MARK1): 8.4% | ATP = Km % Inhibition PF-07208254 (MARK1): 2.1% | ATP = 10 uM % Inhibition PF-07208254 (SPHK2): -11.8% | ATP = 1 mM % Inhibition PF-07208254 (MST4): 3.7% | ATP = Km % Inhibition PF-07208254 (MST4): 16.7% | ATP = 1 mM % Inhibition PF-07208254 (TAOK2): 1.4% | ATP = Km % Inhibition PF-07208254 (TAOK2): -2.5% | ATP = 1 mM % Inhibition PF-07208254 (STK3): -2.3% | ATP = Km % Inhibition PF-07208254 (STK3): 5.5% | ATP = Km % Inhibition PF-07208254 (SPHK1): -15.9% | ATP = 1 mM % Inhibition PF-07208254 (CSNK1A1): -0.6% | ATP = Km % Inhibition PF-07208254 (CSNK1A1): 9.2% | ATP = 1 mM % Inhibition PF-07208254 (PRKCB2): 1.9% | ATP = Km % Inhibition PF-07208254 (PRKCB2): -1.7% | ATP = Km % Inhibition PF-07208254 [1]: 2.3% | ATP = 100 uM % Inhibition PF-07208254 (JNK1): -0.6% | ATP = Km % Inhibition PF-07208254 (NEK6): 7.1% | ATP = Km % Inhibition PF-07208254 (MSK1): 2.7%

CCC1(COc2ccc(-c3csc(-c4ccccc4C(=O)O)n3)cn2)CC1 [PF-07247685, 2-(4-{6-[(1-ethylcyclopropyl)methoxy]pyridin-3-yl}-1,3-thiazol-2-yl)benzoic acid]
ATP = 1 mM % Inhibition PF-07247685 (MARK1): 7.5% | ATP = Km % Inhibition PF-07247685 (MARK1): 4.3% | ATP = 10 uM % Inhibition PF-07247685 (SPHK2): 3.9% | ATP = 1 mM % Inhibition PF-07247685 (MST4): -2.9% | ATP = Km % Inhibition PF-07247685 (MST4): 2.9% | ATP = 1 mM % Inhibition PF-07247685 (TAOK2): -1.8% | ATP = Km % Inhibition PF-07247685 (TAOK2): -4.7% | ATP = 1 mM % Inhibition PF-07247685 (STK3): -7.6% | ATP = Km % Inhibition PF-07247685 (STK3): -1.8% | ATP = Km % Inhibition PF-07247685 (SPHK1): -82.5% | ATP = 1 mM % Inhibition PF-07247685 (CSNK1A1): 2.1% | ATP = Km % Inhibition PF-07247685 (CSNK1A1): 3.1% | ATP = 1 mM % Inhibition PF-07247685 (PRKCB2): 4.0% | ATP = Km % Inhibition PF-07247685 (PRKCB2): 9.4% | ATP = Km % Inhibition PF-07247685 [1]: -1.5% | ATP = 100 uM % Inhibition PF-07247685 (JNK1): 2.1% | ATP = Km % Inhibition PF-07247685 (NEK6): 1.2% | ATP = Km % Inhibition PF-07247685 (MSK1): -1.4%

Reference: article PMC10412597, “Small molecule branched-chain ketoacid dehydrogenase kinase (BDK) inhibitors with opposing effects on BDK protein levels” (Nature Communications, 2023)
